Measured values from PMC8805583, “Discovery of Herbacetin as a Novel SGK1 Inhibitor to Alleviate Myocardial Hypertrophy” (Advanced Science, 2021).

Assays:
SGK1 = target: T1, SGK1 (Homo sapiens, UniProt O00141); assay: Mass spectrometry-based SGK1 kinase inhibitory assay (LC/MS of phosphorylated […]); assay type: biochemical; conditions: MS-based kinase inhibitory assay
T1 sequence (O00141 1-431): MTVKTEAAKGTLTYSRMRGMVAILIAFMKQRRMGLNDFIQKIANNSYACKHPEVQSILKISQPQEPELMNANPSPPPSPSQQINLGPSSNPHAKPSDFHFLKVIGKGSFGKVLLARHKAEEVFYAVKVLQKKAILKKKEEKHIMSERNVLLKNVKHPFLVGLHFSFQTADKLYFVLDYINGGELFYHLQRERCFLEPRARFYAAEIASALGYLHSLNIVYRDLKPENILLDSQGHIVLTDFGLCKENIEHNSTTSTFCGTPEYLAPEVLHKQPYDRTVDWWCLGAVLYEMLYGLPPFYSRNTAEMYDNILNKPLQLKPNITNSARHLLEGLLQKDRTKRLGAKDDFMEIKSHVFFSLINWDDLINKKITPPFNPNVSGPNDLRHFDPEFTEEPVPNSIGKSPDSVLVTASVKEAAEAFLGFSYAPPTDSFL
Description: To identify active compounds with SGK1 inhibitory activity from Ext.R, a novel mass‐spectrometry based kinase inhibitory assay was developed. A polypeptide sequence ([…], m/z: 618.6) derived from glycogen Synthase Kinase‐3(GSK3), a known substrate of SGK1, was optimized and synthesized. We subsequently used liquid chromatography coupled with mass spectrometry (LC/MS) to detect and quantify its phosphorylation level ([…](p)FAE, m/z:658.7) (Figure 3A).^[ [26] ^] Basal level SGK1 was supplemented to each well, and the peak area of phosphorylation was measured in the presence or absence of testing compounds. […] After investigating the major chemical constituents in Ext.R (Table S3, Supporting Information), a set of compounds in Ext.R were subsequently screened for their impacts on SGK1 activity. […] The direct interaction between HBT and SGK1 was further verified by temperature‐ and dose‐dependent cellular thermal shift assays (Figure 3E,F). We further performed a direct binding assay of HBT to SGK1 by KINOMEscan assay (Eurofins Discovery).
Synthesis of […] was prepared by Shanghai Sangong Biotech. In order to ensure the phosphorylation reaction of SGK1, SGK1 (0.25 µg mL^−1) was added to kinase buffer (25 mmol Tris [pH 7.5], 5 mmol β‐glycerolphosphate, 2 mmol DTT, 10 mmol MgCl2) with the substrate peptide […] (25 µmol) and ATP (200 µmol) and incubated for 1 h at 30 °C in the presence or absence of inhibitors. A concentration‐dependent assay for SGK1 at different concentrations (0.05, 0.1, 0.2, 0.25, and 0.3 µg mL^−1) was performed. Reactions were terminated by the addition of methyl alcohol with 0.1% trifluoroacetic acid (TFA), and supernatants were analyzed by the Agilent 1100 LC system (Agilent Technologies, USA) and a 1946D single quadrupole mass spectrometer. The acquisition parameters for LC/MS were set for positive ionization mode and selected ion monitoring (SIM) m/z values of 618.6 and 658.7 for the substrate peptide and product peptide respectively. Chromatographic separation was performed by a reversed‐phase ZORBAX SB‐C18 analytical column. The mobile phase included water containing 0.1% v/v TFA (A) and acetonitrile containing 0.1% v/v TFA (B). The flow rate was 0.6 mL min^−1. A gradient program was carried out according to the following profile: 0 min, 13% B; 15 min, 28% B; 16 min, 100% B. The constituents of Ext.R were screened by the assay to evaluate their inhibitory effects on SGK1 activity. A minimum of three replicates of each sample were analyzed and averaged together. Inhibition of SGK1 was calculated by the following equation (1) Inhibitionrate%=PC−PS/PC P C and P S represented the peak area of product peptide in the control group without test compounds and the tested sample group with various test compounds, respectively.

SGK1-FoxO1 interaction = target: T2, SGK1-FoxO1 interaction (Rattus norvegicus, UniProt Q06226); assay: Co-immunoprecipitation of SGK1 and FoxO1 in cardiomyocytes; assay type: cell-based; conditions: coimmunoprecipitation
T2 construct: endogenous in cells; host or cells: primary neonatal rat cardiomyocytes
T2 sequence (Q06226 1-430): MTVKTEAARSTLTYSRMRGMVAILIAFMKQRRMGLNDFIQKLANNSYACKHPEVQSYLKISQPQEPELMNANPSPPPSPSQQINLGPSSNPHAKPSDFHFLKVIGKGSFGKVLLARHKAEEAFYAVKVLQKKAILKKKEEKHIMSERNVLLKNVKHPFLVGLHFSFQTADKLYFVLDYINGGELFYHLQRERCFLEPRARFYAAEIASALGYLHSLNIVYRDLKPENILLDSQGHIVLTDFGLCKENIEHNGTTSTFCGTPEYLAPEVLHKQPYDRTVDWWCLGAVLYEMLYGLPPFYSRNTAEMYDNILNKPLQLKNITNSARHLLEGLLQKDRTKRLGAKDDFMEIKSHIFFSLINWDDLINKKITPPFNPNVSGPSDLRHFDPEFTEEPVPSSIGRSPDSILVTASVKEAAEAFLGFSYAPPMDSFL
Procedure: In the present study, we studied HBT's effect on protein binding between SGK1 and FoxO1 by coimmunoprecipitation (Figure 5E). […] Nevertheless, as previously reported,^[ [30] ^] […] Supportively, after transfection with the SGK1(S422D) plasmid, we consistently detected increased cytoplasmic signal of FoxO1 compared to nontransfected cells in which the majority of FoxO1 signal was distributed in the nucleus.
For the endogenous interaction assay, cardiomyocytes were treated with HBT or vehicle. After 24 h, cells were lysed with cell lysis buffer contained PMSF (Phenylmethylsulfonyl fluoride, a protease inhibitor). Protein extracts were harvested and immunoprecipitated with anti‐SGK1 or anti‐IgG antibody and protein A/G beads, and then measured by western blotting analysis.

O=c1c(O)c(-c2ccc(O)cc2)oc2c(O)c(O)cc(O)c12 [HBT, herbacetin] was tested, and the IC50 (SGK1) was 752 nM and the “direct binding between SGK1 and FoxO1” value (SGK1-FoxO1 interaction) was “did not detect significant impact”.
